Where two headings read alike, the source gives them in different places.
Columns and labels:
[1] = clinical; conditions: human, in vivo
Experimental: (§1) Dosing Regimen: Subjects in each cohort received tolperisone according to the following regimen.
(§2) Blood samples for the measurement of the plasma concentrations of tolperisone and metabolites M1 (4-hydroxymethyltolperisone) and M4 (4-carboxy-tolperisone) were collected at the times shown in Table 8.
(§3) Bioanalytical: Plasma concentrations of tolperisone and metabolites M1 and M4 were measured using a validated LC/MS/MS assay by Pharm-analyt Laboratory, Baden Austria. The limits of quantitation (LOQ) for tolperisone, Mi, and M4 in plasma were 0.2 ng/ML, and 0.01 μg/mL, respectively.
(§4) Pharmacokinetic Analyses: Pharmacokinetic parameters for tolperisone, M1, and M4 were calculated using non-compartmental analysis. Only plasma concentrations greater than or equal to the LOQ for the respective assay were used in the pharmacokinetic analyses. Actual blood sampling times were used in all pharmacokinetic analyses. […] All pharmacokinetic calculations were done using SAS® for Windows® Version 9.1.3.
(§5) The maximum plasma concentration (Cmax) and time to Cmax (Tmax) were taken directly from the data. The elimination rate constant, λz, was calculated as the negative of the slope of the terminal log-linear segment of the plasma concentration-time curve. The range of data to be used for each subject and treatment was determined by visual inspection of a semi-logarithmic plot of concentration versus time. Elimination half-life (t½) was calculated according to the following equation: [formula] Area under the curve to the final sample with a concentration greater than or equal to the LOQ [(AUC(0-t)] was calculated using the linear trapezoidal method and extrapolated to infinity [AUC(inf)] using: [formula] where Ctf is the final concentration≧LOQ.
(§6) The maximum plasma concentration (Cmax) and time to Cmax (Tmax) were taken directly from the data.
(§7) The maximum plasma concentration (Cmax) and time to Cmax (Tmax) were taken directly from the data. The elimination rate constant, λz, and half-life, t½, were calculated as described for the 0800 dose on Day 1 (above). Areas under the curve to the final sample with a concentration greater than or equal to the LOQ [(AUC(O-t)] and over the 6-hour dosing interval [AUC(0-6)] were calculated using the linear trapezoidal method.

[2] = human, in vivo
Experimental: The study was designed as an open-label, single dose, 4-way crossover study in 24 healthy male subjects. Randomization was performed according to the Latin Square Block design. Six subjects each were distributed to the four treatment arms. Each subject completed the study having received a single dose of 150 mg, 300 mg, and 450 mg of tolperisone once daily in a fasted state, and 150 mg of tolperisone with food. The wash-out period between study periods was at least seven days.
24 healthy male subjects were planned to participate in the study. […] The study group was composed of healthy male Caucasians, aged between 18-50 years, with a body mass index of 19-28 kg/m^2.
Tolperisone, 2-methyl-1-(4-methylphenyl)-3-(1-piperidinyl)-1-propanone, was supplied in coated tablets of 150 mg (“SPH-3047”, Sanochemia Pharmazeutica AG).
The dosage regimen was a four-way crossover. Within four treatment sequences, each subject received each of the following doses once.
Procedures from Day 1 until Day 3 were as follows (time points are detailed in the tabular schedule of trial procedures): • (i) An indwelling intravenous catheter was placed for blood sampling (without using heparin). • (ii) The study drug was administered (either 150, 300, or 450 mg of tolperisone) with 200 ml non-carbonated water in a standing position in a fasting state (intake of a standard breakfast not earlier than 90 minutes after dosing). For the food effect investigation, subjects received 150 mg tolperisone after food intake. • (iii) 12-lead ECG was taken both pre-dose, and at about 2 h post-dose (+15 min); ECG recordings were performed approximately 15 minutes before blood sampling. […] 64 blood samples for the determination of tolperisone and its main metabolite were drawn at the following times: pre-dose and 0.25, 0.5, 0.75, 1.0, 1.25, 1.5, 2, 3, 4, 8, 12, 24, 36, 48, and 72 hours post-administration (16 samples at each treatment).
On Day 1, meals were identical for all four study periods, with the exception of the “fed” study period during which a standardized breakfast was served 30 min prior to dosing.
In the non-fasted study period subjects received a standardized breakfast 30 min prior to dosing. The breakfast was a high fat breakfast according to FDA recommendations and was composed of the following food items: 2 slices of toasted white bread with butter, 2 eggs fried in butter, 2 slices of bacon, 2 ounces (1 oz=28.35 g) of “hash-browns” (fried, shredded potatoes), and 8 ounces of whole milk.
Assessment of Pharmacokinetics: For pharmacokinetic analysis, 7 ml of blood were collected by using Sarstedt monovettes (Sarstedt Ltd., Leicester, UK) or Vacutainers (Becton Dickenson).
The samples were immediately stored in ice water and centrifuged within 30 min following the collection of blood (1500×g, 10 minutes) at +4° C. temperature. The plasma from each sample was divided into two equal aliquots (approx. 2×1.5 ml), which were each transferred to a polypropylene tube, and identified by a coded label. The plasma samples were then stored in a freezer at a temperature of at least −70° C. until time of analysis.

[3] = human, in vivo; remark: listed apart in the source
Experimental: as §1, §2, §3, §4, §5, §6, §7

For `Cc1ccc(C(=O)C(C)CN2CCCCC2)cc1` (centres unmarked) [Tolperisone, 2-methyl-1-(4-methylphenyl)-3-(1-piperidinyl)-1-propanone], which AUC(0-t) ([1]; both, AUC (0-6)) is on record?
Its AUC(0-t) is 196 ± 129 ng·h/mL.

What about the AUC(0-t) ([1]; both, AUC (0-t)) of the same compound?
Its AUC(0-t) is 117 ± 93 ng·h/mL.

What about the AUC(0-inf) ([1]; both, AUC (inf)) of the same compound?
Its AUC(0-inf) is 122 ± 97.5 ng·h/mL.

And the Tmax ([1]; both)?
The Tmax was 0.88 h.

And the half-life ([1]; both, mean elimination half-life)?
The half-life was about 1.3 h.

And the half-life ([1]; both, t½)?
Its half-life is 1.22 ± 0.24 h.

And the AUC(0-t) ([1]; female, AUC(0-6))?
Its AUC(0-t) is 276 ± 151 ng·h/mL.

What about the AUC(0-t) ([1]; female, AUC(0-t)) of the same compound?
Its AUC(0-t) is 173 ± 152 ng·h/mL.

And the AUC(0-inf) ([1]; female, AUC(inf))?
Its AUC(0-inf) is 181 ± 161 ng·h/mL.

What about the Tmax ([1]; female) of the same compound?
Its Tmax is 1 h.

And the half-life ([1]; female, t½)?
Its half-life is 1.17 ± 0.25 h.

What about the AUC(0-t) ([1]; male, AUC(0-6)) of the same compound?
The AUC(0-t) was 162 ± 113 ng·h/mL.

And the AUC(0-t) ([1]; male, AUC(0-t))?
The AUC(0-t) was 93.1 ± 55.2 ng·h/mL.

What about the AUC(0-inf) ([1]; male, AUC(inf)) of the same compound?
Its AUC(0-inf) is 96.3 ± 55.7 ng·h/mL.

What about the Tmax ([1]; male) of the same compound?
Its Tmax is 0.75 h.

And the half-life ([1]; male, t½)?
Its half-life is 1.24 ± 0.25 h.

What about the AUC0-tlast ([2]; po, 150 mg) of the same compound?
Its AUC0-tlast is 54.0 ± 53.2 ng·h/mL.

And the “AUC0-oo, geometric mean for the ratio 150 mg fed/150 mg fasted, point estimate” value ([2]; male)?
The value was 1.87.

And the “AUC0-tlast, geometric mean for the ratio 150 mg fed/150 mg fasted, point estimate” value ([2]; male)?
Its value is 1.92.

And the “Cmax, geometric mean for the ratio 150 mg fed/150 mg fasted, point estimate” value ([2]; male)?
The value was 1.18.

And the AUC0-oo ([2]; male, po, 150 mg)?
Its AUC0-oo is 55.4 ± 53.4 ng·h/mL.

And the Cmax ([2]; male, po, 150 mg)?
Its Cmax is 36.1 ± 38.4 ng/mL.

What about the Tmax ([2]; male, po, 150 mg) of the same compound?
The Tmax was 0.66 h.

What about the t1/2 ([2]; male, po, 150 mg) of the same compound?
Its t1/2 is 2.06 ± 0.43 h.

What about the “mean AUC(0-6) under fasted conditions higher than fed” value ([3]; both) of the same compound?
Its value is 127%.

What about the “mean Cmax under fasted conditions higher than fed” value ([3]; both) of the same compound?
Its value is 213%.

And the t½ ([3]; both)?
Its t½ is 1.59 ± 0.63 (10) h.

And the t½ ([3]; female)?
Its t½ is 1.53 ± 0.08 (3) h.

And the t½ ([3]; male)?
Its t½ is 1.62 ± 0.77 (7) h.

— US20070249673A1, “Method for administering tolperisone” (priority 2006, published 2007)
